Laboratory results published in patent US20260263550A1, “METHODS AND COMPOSITIONS FOR TREATING, PREVENTING, INHIBITING, AMELIORATING OR DELAYING THE ONSET OF OPHTHALMIC CONDITIONS” (Stealth BioTherapeutics Inc., priority 2021, published 2026).

Experiment: in vivo
Conditions: cynomolgus monkey, sc; for concentration at 29 study day: Average Conc.
Procedure: Male and female cynomolgus monkeys were divided into four groups (Groups 1 to 4). Groups 1 and 4 consisted of five males and five females each and Groups 2 and 3 consisted of three males and three females each. Animals were dosed via SC injection once daily for 28 consecutive days. Group 1 animals received the control article, 0.9% sodium chloride injection, USP (saline). Group 2, 3, and 4 animals received the test article, compound of Formula IIa, at dose levels of 2, 5, and 15 mg/kg/day, respectively. Three males and three females from Groups 1 to 3, and three males and one female from Group 4 were necropsied on Day 29 (terminal necropsy). Two males and two females from Groups 1 and 4 were necropsied on Day 42 (recovery necropsy), after a 13-day treatment-free period. […] Safety endpoints included daily clinical and weekly detailed observations, food evaluation, dermal scoring of the injection site, body weight, ophthalmology, electrocardiography (ECG), hematology, coagulation, serum chemistry, and urinalysis. Blood was collected at multiple time points. At termination, gross observations and organ weights were recorded, and eye/optic nerve tissue samples were collected for microscopic evaluation and biodistribution assays.
Preparation of dose formulations. Dose formulation preparations were performed once weekly in a biosafety cabinet using clean techniques. The test article dosing formulations were prepared by diluting the 100 mg/mL (nominal concentration) compound of Formula IIa stock solution in the appropriate volume of 0.9% Sodium Chloride Injection, USP. All formulations (including Group 1, control) were filtered using a 0.22 μm polyethersulfone (PES) syringe filter. Osmolarity and pH were measured and recorded, then the dosing formulations were aliquoted into a sufficient number of sterile glass vials for daily use over one week. All aliquots were stored in a refrigerator set to maintain 4° C. and used within 7 days after preparation.
Test system. The test system was cynomolgus monkey, originating from Cambodia, supplied by Worldwide Primates. The animals were identified by unique skin tattoos. The body weight of the animals ranged from 1.6. to 2.4 kg at initiation of dosing and the ages ranged from 2.0 to 3.1 years at the initiation of dosing. For acclimation, there were 18 males and 18 females. For dosing, 16 males and 16 females were used.
Administration of dose formulations. The dose formulations were administered to appropriate animals by subcutaneous injection into the interscapular area once daily for 28 days using disposable syringe and needle. Four subcutaneous dose sites (upper left/right and lower left/right) were designated on the dorsal back using permanent marker or tattoo placed during acclimation avoiding the spine, with no edges overlapping and with a maximum practical distance between the dose sites. The designated dosing sites were shaved, and injection was rotated among them. If a designated site was not suitable for administration (e.g., due to wound, scab/crust, etc.), the next suitable site was used for dosing and appropriately documented.
Necropsy. Animals were fasted overnight prior to termination. Following blood collection on the day of necropsy, animals were sedated, weighed, and euthanized by an overdose of euthanasia solution, followed by whole body perfusion flush with phosphate buffered saline. Animals were subjected to a complete macroscopic examination and tissue collection. Bone marrow smears were prepared from the sternum at scheduled necropsy. Two females were necropsied early on Days 25 and 27. Blood samples (hematology, coagulation, and serum chemistry) were collected prior to euthanasia, after which a complete macroscopic examination was performed.
Tissue collection and preservation. Left eyes and optic nerves were fixed in a solution of 2.5% NBF and 3% Glutaraldehyde, and right eyes and optic nerves were frozen for biodistribution.
Biodistribution analysis—right eye and optic nerve. […]

[1] = male, 15 mg/kg/day, Average Concentration, Aqueous Humor
[2] = male, 15 mg/kg/day, Average Concentration, Choroid
[3] = male, 15 mg/kg/day, Average Concentration, Conjunctiva
[4] = male, 15 mg/kg/day, Average Concentration, Cornea
[5] = male, 15 mg/kg/day, Average Concentration, ICB (iris/ciliary body)
[6] = male, 15 mg/kg/day, Average Concentration, Optic Nerve
[7] = male, 15 mg/kg/day, Average Concentration, Retina
[8] = male, 15 mg/kg/day, Average Concentration, Sclera
[9] = male, 15 mg/kg/day, Average Concentration, Vitreous Humor

Cc1cc(O)cc(C)c1C[C@H](NC(=O)[C@H](N)CCCNC(=N)N)C(=O)N[C@@H](CCCCN)c1nc(Cc2ccccc2)no1.Cl.Cl.Cl [Formula IIa, (R)-2-amino-N—((S)-1-(((S)-5-amino-1-(3-benzyl-1,2,4-oxadiazol-5-yl)pentyl)amino)-3-(4-hydroxy-2,6-dimethylphenyl)-1-oxopropan-2-yl)-5-guanidinopentanamide]
Average Concentration (2 mg/kg): <LLOQ
Conc. (2 mg/kg): <LLOQ
Concentration (2 mg/kg): <LLOQ
Average Concentration (5 mg/kg): <LLOQ
Conc. (5 mg/kg): <LLOQ
Concentration (5 mg/kg): <LLOQ
Average Concentration (15 mg/kg): <LLOQ
Conc. (15 mg/kg): <LLOQ
Concentration (15 mg/kg): <LLOQ
concentration at 29 study day (female, 2 mg/kg): 17500 ng/g
concentration at 29 day (female, 2 mg/kg/day, Average Concentration, Aqueous Humor): 2.76 ng/mL
concentration at 29 day (female, 2 mg/kg/day, Average Concentration, Choroid): 2500 ng/g
concentration at 29 day (female, 2 mg/kg/day, Average Concentration, Conjunctiva): 835 ng/g
concentration at 29 day (female, 2 mg/kg/day, Average Concentration, Cornea): 27.2 ng/g
concentration at 29 day (female, 2 mg/kg/day, Average Concentration, ICB (iris/ciliary body)): 375 ng/g
concentration at 29 day (female, 2 mg/kg/day, Average Concentration, Optic Nerve): 17500 ng/g
concentration at 29 day (female, 2 mg/kg/day, Average Concentration, Retina): 7390 ng/g
concentration at 29 day (female, 2 mg/kg/day, Average Concentration, Sclera): 446 ng/g
concentration at 29 day (female, 2 mg/kg/day, Average Concentration, Vitreous Humor): 13.1 ng/mL
concentration at 29 day (female, 2 mg/kg/day, Concentration (ng/g), Cornea (individual animals)): 53.4 ng/g
concentration at 29 day (female, 2 mg/kg/day, Concentration (ng/mL), Cornea (individual animals)): 2.67 ng/mL
concentration at 29 study day (female, 5 mg/kg): 31800 ng/g
concentration at 29 day (female, 5 mg/kg/day, Average Concentration, Aqueous Humor): 25.9 ng/mL
concentration at 29 day (female, 5 mg/kg/day, Average Concentration, Choroid): 3210 ng/g
concentration at 29 day (female, 5 mg/kg/day, Average Concentration, Conjunctiva): 1770 ng/g
concentration at 29 day (female, 5 mg/kg/day, Average Concentration, Cornea): 56.1 ng/g
concentration at 29 day (female, 5 mg/kg/day, Average Concentration, ICB (iris/ciliary body)): 800 ng/g
concentration at 29 day (female, 5 mg/kg/day, Average Concentration, Optic Nerve): 31800 ng/g
concentration at 29 day (female, 5 mg/kg/day, Average Concentration, Retina): 20100 ng/g
concentration at 29 day (female, 5 mg/kg/day, Average Concentration, Sclera): 837 ng/g
concentration at 29 day (female, 5 mg/kg/day, Average Concentration, Vitreous Humor): 23.3 ng/mL
concentration at 42 day (female, 15 mg/kg/day, Average Concentration, Aqueous Humor): 9.83 ng/mL
concentration at 42 day (female, 15 mg/kg/day, Average Concentration, Choroid): 27600 ng/g
concentration at 42 day (female, 15 mg/kg/day, Average Concentration, Conjunctiva): 4540 ng/g
concentration at 42 day (female, 15 mg/kg/day, Average Concentration, Cornea): 149 ng/g
concentration at 42 day (female, 15 mg/kg/day, Average Concentration, ICB (iris/ciliary body)): 3160 ng/g
concentration at 42 day (female, 15 mg/kg/day, Average Concentration, Optic Nerve): 40800 ng/g
concentration at 42 day (female, 15 mg/kg/day, Average Concentration, Retina): 67000 ng/g
concentration at 42 day (female, 15 mg/kg/day, Average Concentration, Sclera): 4700 ng/g
concentration at 42 day (female, 15 mg/kg/day, Average Concentration, Vitreous Humor): 62.7 ng/mL
concentration at 42 day (female, 15 mg/kg/day, Concentration (ng/g), Sclera (individual animals)): 5140 ng/g
concentration at 29 study day (male, 2 mg/kg): 22000 ng/g
Concentration, Aqueous Humor (individual animals) (male, 2 mg/kg/day, 29 day): 2.94 ng/mL
concentration at 29 day (male, 2 mg/kg/day, Average Concentration, Aqueous Humor): 2.31 ng/mL
concentration at 29 day (male, 2 mg/kg/day, Average Concentration, Choroid): 1890 ng/g
concentration at 29 day (male, 2 mg/kg/day, Average Concentration, Conjunctiva): 603 ng/g
concentration at 29 day (male, 2 mg/kg/day, Average Concentration, Cornea): 39.3 ng/g
concentration at 29 day (male, 2 mg/kg/day, Average Concentration, ICB (iris/ciliary body)): 354 ng/g
concentration at 29 day (male, 2 mg/kg/day, Average Concentration, Optic Nerve): 22000 ng/g
concentration at 29 day (male, 2 mg/kg/day, Average Concentration, Retina): 2770 ng/g
concentration at 29 day (male, 2 mg/kg/day, Average Concentration, Sclera): 701 ng/g
concentration at 29 day (male, 2 mg/kg/day, Average Concentration, Vitreous Humor): 11.2 ng/mL
concentration at 29 day (male, 2 mg/kg/day, Concentration, Aqueous Humor (individual animals)): 4 ng/mL
concentration at 29 study day (male, 5 mg/kg): 26300 ng/g
concentration at 29 day (male, 5 mg/kg/day, Average Concentration, Aqueous Humor): 5.29 ng/mL
concentration at 29 day (male, 5 mg/kg/day, Average Concentration, Choroid): 4060 ng/g
concentration at 29 day (male, 5 mg/kg/day, Average Concentration, Conjunctiva): 3560 ng/g
concentration at 29 day (male, 5 mg/kg/day, Average Concentration, Cornea): 64 ng/g
concentration at 29 day (male, 5 mg/kg/day, Average Concentration, ICB (iris/ciliary body)): 1230 ng/g
concentration at 29 day (male, 5 mg/kg/day, Average Concentration, Optic Nerve): 26300 ng/g
concentration at 29 day (male, 5 mg/kg/day, Average Concentration, Retina): 5760 ng/g
concentration at 29 day (male, 5 mg/kg/day, Average Concentration, Sclera): 1820 ng/g
concentration at 29 day (male, 5 mg/kg/day, Average Concentration, Vitreous Humor): 13.3 ng/mL
concentration at 29 day [1]: 14.5 ng/mL
concentration at 42 day [1]: 3.82 ng/mL
concentration at 29 day [2]: 8790 ng/g
concentration at 42 day [2]: 7880 ng/g
concentration at 29 day [3]: 5430 ng/g
concentration at 42 day [3]: 4380 ng/g
concentration at 29 day [4]: 195 ng/g
concentration at 42 day [4]: 34.8 ng/g
concentration at 29 day [5]: 3910 ng/g
concentration at 42 day [5]: 1410 ng/g
concentration at 29 day [6]: 60000 ng/g
concentration at 42 day [6]: 91500 ng/g
concentration at 29 day [7]: 26100 ng/g
concentration at 42 day [7]: 30200 ng/g
concentration at 29 day [8]: 2260 ng/g
concentration at 42 day [8]: 3870 ng/g
concentration at 29 day [9]: 48.8 ng/mL
concentration at 42 day [9]: 45.3 ng/mL
concentration at 42 day (male, 15 mg/kg/day, Concentration (ng/g), Cornea (individual animals)): 34.6 ng/g
concentration at 42 day (male, 15 mg/kg/day, Concentration (ng/mL), Cornea (individual animals)): 1.73 ng/mL
